Laboratory results as given in PMC12040169 (PLOS Biology, 2025).

Test: in vitro
Conditions: human, hela cells, % viability

Compound | viability at 28.5 h, 10 µM
O=C(CSc1nnc(C2CC2)[nH]1)Nc1ccc(SC(F)F)cc1 [CBK295302] | 101%
C=CCn1c(-c2sc(NC(=O)c3cc4ccccc4s3)nc2C)n[nH]c1=S [CBK295303] | 94.8%
CN(CC(=O)Nc1ccc(Cl)c(C(F)(F)F)c1)C(=O)c1cc(O)nc2ccccc12 [CBK295304] | 87.8%
Cc1nc(NC(=O)C2CC(=O)N(c3cccc(C(C)C)c3)C2)sc1-c1n[nH]c(=S)n1C (stereo not shown) [CBK295306] | 91%
C=CCn1c(Cc2csc(NC(=O)c3ccc(C)c(F)c3)n2)n[nH]c1=S [CBK295307] | 80.6%
COc1ccc(C2CCCN2S(=O)(=O)c2ccccc2[N+](=O)[O-])cc1OC (stereo not shown) [CBK295309] | 96.1%
C=CCn1c(-c2sc(NC(=O)CCc3ccco3)nc2C)n[nH]c1=S [CBK295312] | 89.4%
CCCCOC(=O)c1ccc(NC(=O)c2cc(-c3ccco3)nc3c2c(C)nn3C)cc1 [CBK295313] | 103%
C=CCn1c(Cc2csc(NC(=O)c3cccc(Cl)c3)n2)n[nH]c1=S [CBK295314] | 98.3%
COc1ccc(-c2n[nH]c(=S)n2CC(=O)Nc2nc(-c3ccc(C)cc3C)cs2)cc1 [CBK295316] | 96.9%
C=CCn1c(Cc2csc(NC(=O)c3ccc(Cl)cc3)n2)n[nH]c1=S [CBK295318] | 86.7%
CCc1ccc(OCc2nnc(SCC(=O)NCCCC(=O)O)n2CC(C)C)cc1 [CBK295321] | 101%
C=CCn1c(Cc2csc(NC(=O)c3ccc([N+](=O)[O-])c(C)c3)n2)n[nH]c1=S [CBK295323] | 87%
C=CCn1c(Cc2csc(NC(=O)c3ccc(OC)c(OC)c3)n2)n[nH]c1=S [CBK295324] | 102%
CCCn1c(C)cc(-c2csc(NC(=O)CCn3c(-c4cccs4)n[nH]c3=S)n2)c1C [CBK295326] | 90.8%
CCc1noc(C)c1C(=O)Nc1cc(S(=O)(=O)N2CCCCC2)ccc1N(C)C [CBK295328] | 85.4%
CN(C)c1ccc(CNC(=O)Cn2nc(C(=O)O)c3ccccc3c2=O)cc1 [CBK295330] | 105%
CN(Cc1ccc(N2CCCCC2)cc1)S(=O)(=O)c1ccsc1C(=O)O [CBK295333] | 85.5%
O=C(Nc1cccc(C=Cc2ccccn2)c1)c1c[nH]nc1-c1ccc(F)cc1 [CBK295335] | 78%
Cc1ccc2cc(COC(=O)c3ccc(N4CCOCC4)nc3)c(Cl)nc2c1 [CBK295336] | 90.5%
Cc1nc(NC(=O)C2Cc3ccccc3S2)sc1-c1n[nH]c(=S)n1C (stereo not shown) [CBK295337] | 98%

Compound | viability at 28.5 h, 10 µM
C=CCn1c(Cc2csc(NC(=O)c3ccc(OC(F)F)cc3)n2)n[nH]c1=S [CBK295338] | 100%
C=CCn1c(Cc2csc(NC(=O)c3cccc([N+](=O)[O-])c3)n2)n[nH]c1=S [CBK295339] | 106%
C=CCn1c(Cc2csc(NC(=O)c3ccc(S(C)(=O)=O)cc3)n2)n[nH]c1=S [CBK295340] | 97%
COc1ccc(C(NC(=O)COc2c(Cl)cc(C(=O)O)cc2Cl)C(C)C)cc1 (stereo not shown) [CBK295344] | 87.3%
Cc1nc(-c2ccco2)nc2sc(C(=O)N(C)CC3COc4ccccc4O3)c(C)c12 (stereo not shown) [CBK295347] | 105%
O=C(CC12CC3CC(CC(C3)C1)C2)NCC(=O)Nc1ccc2[nH]c(=O)[nH]c2c1 [CBK295349] | 85.3%
O=C(Cn1c2ccccc2c(=O)c2ccccc21)Nc1ccc(-n2cncn2)nc1 [CBK295350] | 93.1%
CCCCn1c(SCC(=O)c2cc(C)n(CCc3ccc(OC)cc3)c2C)n[nH]c1=O [CBK295351] | 96.1%
COc1ccc(-c2n[nH]c(=S)n2CC(=O)N2CCN(c3cccc(C)c3)CC2)cc1 [CBK295352] | 88.6%
COc1ccc2cc(Cn3nc(C(=O)O)c4ccccc4c3=O)c(Cl)nc2c1 [CBK295354] | 88%
COc1ccc2cc(CNC(Cc3ccccc3)c3ccccc3)c(Cl)nc2c1 (stereo not shown) [CBK295357] | 93.3%
Cc1nc(COc2ccc(C(=O)Nc3ccc(C(=O)O)cc3C)cc2)cs1 [CBK295360] | 91.3%
C=CCn1c(-c2sc(NC(=O)c3ccc(Cl)cc3F)nc2C)n[nH]c1=S [CBK295361] | 94.7%
Cc1nc(NC(=O)CCN2C(=O)COc3ccccc32)sc1-c1n[nH]c(=S)n1C [CBK295362] | 98.5%
CCn1c(=O)c(C=Cc2cccc(Br)c2)nc2cc(C(=O)O)ccc21 [CBK295364] | 110%
CCCn1c(SCC(=O)N2CCN(S(=O)(=O)c3ccc(C)cc3C)CC2)n[nH]c1=O [CBK295590] | 104%
CCCn1c(O)cc(=O)nc1SCC(=O)NCc1ccc(OC)c(OC)c1 [CBK295592] | 101%
O=c1oc(-c2ccco2)nn1Cc1ccc([N+](=O)[O-])cc1 [CBK295593] | 94.8%
CC(Sc1nc(-c2ccccc2F)n[nH]1)C(=O)N1CCNC1=O (stereo not shown) [CBK295594] | 106%
CCCn1c(SC(C)C(=O)c2cc(C)n(-c3ccc(Cl)cc3)c2C)n[nH]c1=O (stereo not shown) [CBK295595] | 86.2%
CC(=O)Nc1cccc(NC(=O)c2ccc(CN3CCCCC3)cc2)c1 [CBK295596] | 103%

Compound | viability at 28.5 h, 10 µM
Cc1cc(C)c(NC(=O)CSc2n[nH]c(=O)n2C2CC2)c(C)c1 [CBK295598] | 95%
Cc1nc(C)c(CCC(=O)NC2CCCc3ccccc32)c(=O)[nH]1 (stereo not shown) [CBK295600] | 98.7%
Cc1nc(C)c(CCC(=O)NC2CCSc3c(F)cccc32)c(=O)[nH]1 (stereo not shown) [CBK295601] | 95.2%
O=C(CCn1c(=O)oc2ccccc21)N1CC=C(c2ccc(F)cc2)CC1 [CBK295602] | 95.8%
Cc1ccc(SCCNC(=O)CSc2n[nH]c(=O)n2C2CC2)cc1 [CBK295605] | 120%
Cc1noc2nc(-c3ccco3)cc(C(=O)NCc3nc4ccccc4[nH]3)c12 [CBK295608] | 93.5%
O=C(CSc1ncnc2ccccc12)N(Cc1ccccc1F)C1CC1 [CBK295610] | 92.1%
CC(C)[C@H](NS(=O)(=O)c1ccc(Cl)cc1)C(=O)NCc1ccc(Cn2cccn2)cc1 [CBK295611] | 104%
Cc1ccc(Oc2ccc(NC(=O)Cn3cnnc3C#N)cc2)cc1 [CBK295612] | 106%
Cc1csc(NC(=O)c2cc(S(=O)(=O)N3CCCC3)cn2C)n1 [CBK295617] | 87.8%
Cc1c(O)ccc2c(COC(=O)C3(c4ccccc4)CCCC3)cc(=O)oc12 [CBK295622] | 98.8%
Cc1noc2nc(-c3ccco3)cc(C(=O)N(C)CCOc3ccccc3)c12 [CBK295623] | 90.1%
CN(Cc1cn(-c2ccccc2)nc1-c1ccccc1)C(=O)CCc1n[nH]c(=S)[nH]c1=O [CBK295630] | 102%
O=C(OCCCc1cccnc1)c1cc(=O)[nH]c2ccccc12 [CBK295631] | 99.7%
O=C(NC(c1ccc(F)cc1)c1cccs1)c1ccccn1 (stereo not shown) [CBK295636] | 106%
Cc1cc(NC(=O)C(C)N2CCN(S(=O)(=O)c3ccc(C4CCCCC4)cc3)CC2)on1 (stereo not shown) [CBK295639] | 101%
O=C(COc1ccc(-c2ccccc2)cc1Cl)N1CCN(C(=O)C2CC2)CC1 [CBK295640] | 96.8%
Cc1cc(C(=O)CSc2nc(=O)cc(O)n2CC(C)C)c(C)n1C [CBK295649] | 85.4%
COCCCn1c(SCc2csc(-c3ccc(C)cc3)n2)n[nH]c1=O [CBK295657] | 93.3%
Cc1ccc(OCC(=O)NC(C)c2ccc(F)cc2F)c([N+](=O)[O-])n1 (stereo not shown) [CBK295662] | 92.7%
Cc1ccc(CN(C)C(C)C(=O)NCc2cccs2)cc1 (stereo not shown) [CBK295663] | 103%

Compound | viability at 28.5 h, 10 µM
COc1ccc(CN(C(=O)CCc2c(C)[nH]c(=O)c(C#N)c2C)C2CC2)cc1 [CBK295667] | 97.6%
Cc1ccc(-c2csc(=Nc3ccc(C(=O)O)cc3)n2Cc2ccccc2)cc1 [CBK296062] | 105%
Cc1cc(=O)[nH]c(SCc2nc3ccccn3c2Br)n1 [CBK296063] | 121%
CCOc1ccc(Nc2nc(-c3ccc(F)cc3)c(CC(=O)O)s2)cc1 [CBK296064] | 99.3%
O=C(O)CCC(=O)N1N=C2C(=Cc3ccc(F)cc3)CCCC2C1c1ccc(F)cc1 (stereo not shown) [CBK296066] | 93%
CSCCC(NC(=O)c1ccccc1NC(=O)c1ccc(C)cc1)C(=O)O (stereo not shown) [CBK296067] | 94.1%
O=C(O)CCC(=O)N1N=C2C(=Cc3ccco3)CCCC2C1c1ccco1 (stereo not shown) [CBK296069] | 97.9%
O=C(O)CCC(=O)N1N=C2C(=Cc3cccc([N+](=O)[O-])c3)CCCC2C1c1cccc([N+](=O)[O-])c1 (stereo not shown) [CBK296071] | 122%
COc1ccc(C2c3cc(OC)c(OC)cc3CC(=O)N2c2ccc(C(=O)O)cc2)cc1 (stereo not shown) [CBK296074] | 93.6%
CC(=O)Nc1ccc(S(=O)(=O)Nc2nc3ccccc3nc2Nc2ccc(C(=O)O)cc2)cc1 [CBK296079] | 125%
Cc1c(OCc2ccc(C(=O)O)cc2)ccc2c(-c3ccccc3)cc(=O)oc12 [CBK296080] | 117%
COc1ccc(C2c3cc(OC)c(OC)cc3CC(=O)N2c2ccc(C(=O)O)cc2)cc1OC (stereo not shown) [CBK296082] | 96.4%
CCOc1ccc(-n2c(C)cc(C(=O)NS(=O)(=O)c3ccc(C)cc3)c2C)cc1 [CBK296084] | 90.1%
Cc1ccc(S(=O)(=O)NC(=O)c2cc(C)n(-c3ccc(N(C)C)cc3)c2C)cc1 [CBK296085] | 92.9%
O=C(NCCCCNC(=O)c1scc(-c2ccccc2)c1C(=O)O)c1scc(-c2ccccc2)c1C(=O)O [CBK296086] | 107%
O=C(O)COc1ccc2c(=O)c(Oc3ccc(Cl)cc3)c(C(F)(F)F)oc2c1 [CBK296087] | 119%
O=C(O)CCCNC(=O)COc1ccccc1OCC(=O)NCCCC(=O)O [CBK296089] | 90%
O=C(Nc1ccc(SC(F)F)cc1)c1cc(-c2ccncc2)nc2ccccc12 [CBK296092] | 85.8%
Cc1sc(NC(=O)CC(C)(C)CC(=O)Nc2sc(C)c(C)c2C(=O)O)c(C(=O)O)c1C [CBK296094] | 98.7%
